Data: US8481738B2, “Gonadotropin-releasing hormone receptor antagonists and methods relating thereto” (Neurocrine Biosciences, Inc., priority 2007, dated 2013)

What follows are molecules tested against T1, human GnRH receptor (Homo sapiens, UniProt P30968) (assay: Peptide competition radioligand binding displacement assay, human GnRH receptor membranes). Conditions: one or more of the peptide competition human receptor binding assays.
T1 construct: expressed in transfected cells; host or cells: RBL cells, stably transfected (in general)
T1 sequence (P30968 1-328): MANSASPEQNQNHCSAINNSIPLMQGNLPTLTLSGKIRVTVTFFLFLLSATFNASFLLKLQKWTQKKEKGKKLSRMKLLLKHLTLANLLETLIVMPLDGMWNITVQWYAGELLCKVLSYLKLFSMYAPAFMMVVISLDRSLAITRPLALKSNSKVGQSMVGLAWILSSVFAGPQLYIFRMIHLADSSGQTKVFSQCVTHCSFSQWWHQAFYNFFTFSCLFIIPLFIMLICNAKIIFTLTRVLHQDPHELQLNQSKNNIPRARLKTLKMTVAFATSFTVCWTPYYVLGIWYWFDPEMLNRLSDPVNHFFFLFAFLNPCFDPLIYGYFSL
Summary of the method: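 Membranes for radioligand binding were prepared from RBL cells stably expressing human GnRH receptor, which were lysed by nitrogen cavitation at 900 psi, 4° C. Membranes from HEK293 cells stably transfected with human receptor were held in 10 mM HEPES pH 7.5, 150 mM NaCl, 0.1% BSA. Transiently transfected COS-7 cells were used for other species.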
`COc1ccccc1N(C)C(=O)c1cc(-c2cnc(C(F)(F)F)cc2C#N)c(Cl)cc1OCCN1CCCC1=O` [42-1, 4-Chloro-5-(4-cyano-6-trifluoromethyl-pyridin-3-yl)-N-(2-methoxy-phenyl)-N-methyl-2-[2-(2-oxo-pyrrolidin-1-yl)-ethoxy]-benzamide] gave a Ki of no more than 100 nM.
For `COc1ccccc1N(C)C(=O)c1cc(-c2cnc(C(F)(F)F)cc2C#N)c(Cl)cc1OCCN1CCOCC1` [42-2], the Ki was no more than 100 nM.
For `COc1ccccc1N(C)C(=O)c1cc(-c2cnc(C(F)(F)F)cc2C#N)c(Cl)cc1OCCn1ccnc1` [42-3], the Ki was no more than 100 nM.
`COc1ccccc1N(C)C(=O)c1cc(-c2cnc(C(F)(F)F)cc2C#N)c(Cl)cc1OCCc1ccccn1` [42-4] was tested, and the Ki was no more than 100 nM.
Work on `COc1ccccc1N(C)C(=O)c1cc(-c2cnc(C(F)(F)F)cc2C#N)c(Cl)cc1OCCCc1ccccn1` [42-6] yielded a Ki of no more than 100 nM.
Work on `COc1ccccc1N(C)C(=O)c1cc(-c2cnc(C(F)(F)F)cc2C#N)c(Cl)cc1OCCCc1cn[nH]c1` [42-7] yielded a Ki of no more than 100 nM.
Work on `COc1ccccc1N(C)C(=O)c1cc(-c2cnc(C(F)(F)F)cc2C#N)c(Cl)cc1OCCOc1ccccn1` [42-8] yielded a Ki of no more than 100 nM.
`COc1ccccc1N(C)C(=O)c1cc(-c2cnc(C(F)(F)F)cc2C#N)c(Cl)cc1OCCCc1ccncc1` [42-9] was tested, and the Ki was no more than 100 nM.
For `COc1ccccc1N(C)C(=O)c1cc(-c2cnc(C(F)(F)F)cc2C#N)c(Cl)cc1OCCCn1cccc1` [42-10], the Ki was no more than 100 nM.
`COc1ccccc1N(C)C(=O)c1cc(-c2cnc(C(F)(F)F)cc2C#N)c(Cl)cc1OCCCn1ccnc1` [42-11] showed a Ki of no more than 100 nM.
`COc1ccccc1N(C)C(=O)c1cc(-c2cnc(C(F)(F)F)cc2C#N)c(Cl)cc1OCCCn1cccn1` [42-12] gave a Ki of no more than 100 nM.
Work on `COc1ccccc1N(C)C(=O)c1cc(-c2cnc(C(F)(F)F)cc2C#N)c(Cl)cc1OCCCn1cncn1` [42-13] yielded a Ki of no more than 100 nM.
In the case of `COc1ccccc1N(C)C(=O)c1cc(-c2cnc(C(F)(F)F)cc2C#N)c(Cl)cc1OCCCc1ccn(C)n1` [42-14], the Ki is reported as no more than 100 nM.
For `COc1ccccc1N(C)C(=O)c1cc(-c2cnc(C(F)(F)F)cc2C#N)c(Cl)cc1OCCCOc1ccccn1` [42-15], the Ki was no more than 100 nM.
Molecule `COc1ccccc1N(C)C(=O)c1cc(-c2cnc(C(F)(F)F)cc2C#N)c(Cl)cc1OCCN` [42-16] has a Ki of no more than 100 nM.
Molecule `CNCCOc1cc(Cl)c(-c2cnc(C(F)(F)F)cc2C#N)cc1C(=O)N(C)c1ccccc1OC` [42-17] has a Ki of no more than 100 nM.
Molecule `COc1ccccc1N(C)C(=O)c1cc(-c2cnc(C(F)(F)F)cc2C#N)c(Cl)cc1OCC(N)CO` (centres unmarked) [42-18] has a Ki of no more than 100 nM.
In the case of `CCOC(=O)CCCOc1cc(Cl)c(-c2cnc(C(F)(F)F)cc2C#N)cc1C(=O)N(C)c1ccccc1OC` [43-1, 4-{5-Chloro-4-(4-cyano-6-trifluoromethyl-pyridin-3-yl)-2-[(2-methoxy-phenyl)-methyl-carbamoyl]-phenoxy}-butyric acid ethyl ester], the Ki is reported as no more than 100 nM.
Molecule `COc1ccccc1N(C)C(=O)c1cc(-c2cnc(C(F)(F)F)cc2C#N)c(Cl)cc1CC(=O)O` [44-1, {5-Chloro-4-(4-cyano-6-trifluoromethyl-pyridin-3-yl)-2-[(2-methoxy-phenyl)-methyl-carbamoyl]-phenyl}-acetic acid] has a Ki of no more than 100 nM.
`CN(C(=O)c1ccc(Cl)c(-c2cnc(C(F)(F)F)cc2C#N)c1)c1ccccc1OCCc1nnn[nH]1` [45-1, 4-Chloro-3-(4-cyano-6-trifluoromethyl-pyridin-3-yl)-N-methyl-N-{2-[2-(1H-tetrazol-5-yl)-ethoxy]-phenyl}-benzamide] showed a Ki of no more than 100 nM.
With `COc1ccccc1N(C)C(=O)c1cc(-c2cnc(C(F)(F)F)cc2C#N)c(Cl)cc1OCCCc1cnoc1` [46-1, 4-Chloro-5-(4-cyano-6-trifluoromethyl-pyridin-3-yl)-2-(3-isoxazol-4-yl-propoxy)-N-(2-methoxyphenyl)-N-methyl-benzamide] the Ki was no more than 100 nM.
`COc1ccccc1CCOc1cc(Cl)c(-c2cnc(C(F)(F)F)cc2C#N)cc1C(=O)N(C)c1ccccc1OC` [46-2] gave a Ki of no more than 100 nM.
Molecule `COc1ccccc1N(C)C(=O)c1cc(-c2cnc(C(F)(F)F)cc2C#N)c(Cl)cc1OCCc1cnccn1` [46-3] has a Ki of no more than 100 nM.
Molecule `COc1ccccc1N(C)C(=O)c1cc(-c2cnc(C(F)(F)F)cc2C#N)c(Cl)cc1OCCCN1C(=O)c2ccccc2C1=O` [46-4] has a Ki of no more than 100 nM.
For `COc1ccccc1N(C)C(=O)c1cc(-c2cnc(C(F)(F)F)cc2C#N)c(Cl)cc1OCCNC(C)=O` [47-1, 2-(2-Acetylamino-ethoxy)-4-chloro-5-(4-cyano-6-trifluoromethyl-pyridin-3-yl)-N-(2-methoxy-phenyl)-N-methyl-benzamide], the Ki was no more than 100 nM.
`COc1ccccc1N(C)C(=O)c1cc(-c2cnc(C(F)(F)F)cc2C#N)c(Cl)cc1OCCN(C)C(C)=O` [47-2] gave a Ki of no more than 100 nM.
Molecule `COc1ccccc1N(C)C(=O)c1cc(-c2cnc(C(F)(F)F)cc2C#N)c(Cl)cc1OCCCNC(C)=O` [47-3] has a Ki of no more than 100 nM.
With `COc1ccccc1N(C)C(=O)c1cc(-c2cnc(C(F)(F)F)cc2C#N)c(Cl)cc1OCCNC(=O)C(F)(F)F` [47-4] the Ki was no more than 100 nM.
In the case of `COc1ccccc1N(C)C(=O)c1cc(-c2cnc(C(F)(F)F)cc2C#N)c(Cl)cc1OCCN(C)C(=O)C(F)(F)F` [47-5], the Ki is reported as no more than 100 nM.
In the case of `COc1ccccc1N(C)C(=O)c1cc(-c2cnc(C(F)(F)F)cc2C#N)c(Cl)cc1OCCNS(C)(=O)=O` [48-1, 4-Chloro-5-(4-cyano-6-trifluoromethyl-pyridin-3-yl)-2-(2-methanesulfonylamino-ethoxy)-N-(2-methoxy-phenyl)-N-methyl-benzamide], the Ki is reported as no more than 100 nM.
In the case of `COc1ccccc1N(C)C(=O)c1cc(-c2cnc(C(F)(F)F)cc2C#N)c(Cl)cc1OCCN(C)S(C)(=O)=O` [48-2, 4-Chloro-5-(4-cyano-6-trifluoromethyl-pyridin-3-yl)-2-[2-(methanesulfonyl-methyl-amino)-ethoxy]-N-(2-methoxy-phenyl)-N-methyl-benzamide], the Ki is reported as no more than 100 nM.
For `COc1ccccc1N(C)C(=O)c1cc(-c2cnc(C(F)(F)F)cc2C#N)c(Cl)cc1OCCCN1CCC[C@H]1C(=O)O` [49-1, (S)-1-(3-{5-Chloro-4-(4-cyano-6-trifluoromethyl-pyridin-3-yl)-2-[(2-methoxy-phenyl)-methyl-carbamoyl]-phenoxy}-propyl)-pyrrolidine-2-carboxylic acid], the Ki was no more than 100 nM.
For `COc1ccccc1N(C)C(=O)c1cc(-c2cnc(C(F)(F)F)cc2C#N)c(Cl)cc1OCCN1CCC[C@@H]1C(=O)O` [49-2], the Ki was no more than 100 nM.
Molecule `COc1ccccc1N(C)C(=O)c1cc(-c2cnc(C(F)(F)F)cc2C#N)c(Cl)cc1OCCN1CCC[C@H]1C(=O)O` [49-3] has a Ki of no more than 100 nM.
`CN(C(=O)c1ccc(Cl)c(-c2cnc(C(F)(F)F)cc2C#N)c1)c1ccccc1OCCCN1CCC[C@H]1C(=O)O` [50-1, (S)-1-[3-(2-{[4-Chloro-3-(4-cyano-6-trifluoromethyl-pyridin-3-yl)-benzoyl]-methyl-amino}-phenoxy)-propyl]-pyrrolidine-2-carboxylic acid] gave a Ki of no more than 100 nM.
With `CN(C(=O)c1ccc(Cl)c(-c2cnc(C(F)(F)F)cc2C#N)c1)c1ccccc1OCCN1CCC[C@@H]1C(=O)O` [50-2] the Ki was no more than 100 nM.
In the case of `CN(C(=O)c1ccc(Cl)c(-c2cnc(C(F)(F)F)cc2C#N)c1)c1ccccc1OCCN1CCC[C@H]1C(=O)O` [50-3], the Ki is reported as no more than 100 nM.
In the case of `CN(C(=O)c1ccc(Cl)c(-c2cnc(C(F)(F)F)cc2C#N)c1)c1ccccc1OCCOc1ccccn1` [51-1, 4-Chloro-3-(4-cyano-6-trifluoromethyl-pyridin-3-yl)-N-methyl-N-{2-[2-(pyridin-2-yloxy)-ethoxy]-phenyl}-benzamide], the Ki is reported as no more than 100 nM.
`CN(C(=O)c1ccc(Cl)c(-c2cnc(C(F)(F)F)cc2C#N)c1)c1ccccc1OCC(C)(C)C(=O)O` [52-1, 3-(2-{[4-Chloro-3-(4-cyano-6-trifluoromethyl-pyridin-3-yl)-benzoyl]-methyl-amino}-phenoxy)-2,2-dimethyl-propionic acid] showed a Ki of no more than 100 nM.
In the case of `CN(C(=O)c1ccc(Cl)c(-c2cnc(C(F)(F)F)cc2C#N)c1)c1ccccc1OCCC(=O)NCCN` [53-1, N-{2-[2-(2-Amino-ethylcarbamoyl)-ethoxy]-phenyl}-4-chloro-3-(4-cyano-6-trifluoromethyl-pyridin-3-yl)-N-methylbenzamide], the Ki is reported as no more than 100 nM.
In the case of `CN(C(=O)c1ccc(Cl)c(-c2cnc(C(F)(F)F)cc2C#N)c1)c1ccccc1OCCC(=O)N1CCNCC1` [53-2, 4-Chloro-3-(4-cyano-6-trifluoromethyl-pyridin-3-yl)-N-methyl-N-[2-(3-oxo-3-piperazin-1-yl-propoxy)-phenyl]-benzamide], the Ki is reported as no more than 100 nM.
